Data from ChEMBL document CHEMBL1135282, “Novel potent antagonists of human neuropeptide Y Y5 receptor. Part 1: 2-oxobenzothiazolin-3-acetic acid derivatives” (Bioorg Med Chem Lett, 2002).

What was measured:
[1] = molecular target: T1, Neuropeptide Y receptor type 5 (Homo sapiens, UniProt Q15761); experiment: Inhibitory concentration of total specific binding of [125I]- -PYY to HEK 293 cells transfected with Human NPY-Y5 cDNA (compound prepared by manual synthesis technique); assay type: cell-based, HEK293
T1 sequence (Q15761 whole entry): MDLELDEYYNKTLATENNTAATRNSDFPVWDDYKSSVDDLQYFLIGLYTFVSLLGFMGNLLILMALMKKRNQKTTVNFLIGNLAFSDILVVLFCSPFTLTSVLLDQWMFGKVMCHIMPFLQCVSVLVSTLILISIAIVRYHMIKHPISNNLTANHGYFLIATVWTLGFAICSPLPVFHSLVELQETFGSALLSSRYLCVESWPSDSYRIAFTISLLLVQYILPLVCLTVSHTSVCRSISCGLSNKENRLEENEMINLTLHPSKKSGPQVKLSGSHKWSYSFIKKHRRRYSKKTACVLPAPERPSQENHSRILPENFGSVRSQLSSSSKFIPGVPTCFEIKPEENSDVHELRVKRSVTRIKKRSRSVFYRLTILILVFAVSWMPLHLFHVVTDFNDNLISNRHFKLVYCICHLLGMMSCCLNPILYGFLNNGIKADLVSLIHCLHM

[2] = molecular target: T1, Neuropeptide Y receptor type 5; experiment: Inhibitory concentration of total specific binding of [125I]- -PYY to HEK 293 cells transfected with the Human NPY-Y5 cDNA (compound prepared by parallel synthesis technique); assay type: cell-based, HEK293
[3] = molecular target: T2, Neuropeptide Y receptor type 5 (Homo sapiens) (UniProt Q15761); experiment: Tested for the inhibition of [125I]PYY binding to HEK 293 cells stably expressed with human neuropeptide NPY Y5 receptor at a concentration of 10e-9 M; assay type: cell-based; conditions: HEK293
T2 sequence (whole entry): T1 sequence (Q15761 whole entry)

[4] = molecular target: T2, Neuropeptide Y receptor type 5 (Homo sapiens); experiment: Tested for the inhibition of [125I]PYY binding to HEK 293 cells stably expressed with human neuropeptide NPY Y5 receptor at a concentration of 10e-8 M; assay type: cell-based; conditions: HEK293
[5] = molecular target: T2, Neuropeptide Y receptor type 5 (Homo sapiens); experiment: Tested for the inhibition of [125I]PYY binding to HEK 293 cells stably expressed with human neuropeptide NPY Y5 receptor at a concentration of 10e-7 M; assay type: cell-based; conditions: HEK293
[6] = molecular target: T2, Neuropeptide Y receptor type 5 (Homo sapiens); experiment: (§1) Tested for the inhibition of [125I]PYY binding to HEK 293 cells stably expressed with human neuropeptide NPY Y5 receptor at a concentration of 10e-6 M; assay type: cell-based; conditions: HEK293
[7] = molecular target: T1, Neuropeptide Y receptor type 5; experiment: as §1; assay type: cell-based, HEK293
[8] = Plasma concentration after oral administration of 100 mg/kg to rats; assay type: ADME, organism-based; parameters: dose 100 mg/kg, route oral; conditions: rat
[9] = molecular target: T1, Neuropeptide Y receptor type 5; experiment: Tested for the inhibition of [125I]PYY binding to HEK 293 cells stably expressed with human neuropeptide NPY Y5 receptor; assay type: cell-based, HEK293

Row | IC50 [1] | IC50 [2] | inhibition [3] | inhibition [4] | inhibition [5] | inhibition [6] | IC50 [7] | Cmax [8] | IC50 [9] | SMILES
1 | 1.7 nM | 2.9 nM | 28.7% | 74.6% | 101% | 84.7% |  |  |  | O=C(Nc1ccc(CCO)cc1)C1CCN(C(=O)Cn2c(=O)sc3ccc(Cl)cc32)CC1
2 | 1.3 nM | 2.6 nM |  | 89.6% | 106% |  |  |  |  | CCCCCCCCCCNC(=O)C1CCN(C(=O)Cn2c(=O)sc3ccc(Cl)cc32)CC1
3 | 6.1 nM | 9 nM | 19.5% | 44.7% | 88.8% | 102% |  |  |  | NS(=O)(=O)c1ccc(CCNC(=O)C2CCN(C(=O)Cn3c(=O)sc4ccc(Cl)cc43)CC2)cc1
4 | 1.2 nM | 1.1 nM | 47.8% | 79.4% | 97.1% | 108% |  |  |  | O=C(NCC(O)c1ccccc1)C1CCN(C(=O)Cn2c(=O)sc3ccc(Cl)cc32)CC1 (stereo unspecified)
5 | 0.89 nM | 1.4 nM | 45.3% | 80.5% | 101% | 102% |  |  |  | O=C(c1ccccc1)c1cccc(NC(=O)C2CCN(C(=O)Cn3c(=O)sc4ccc(Cl)cc43)CC2)c1
6 |  |  |  |  | 14.5% |  |  |  |  | COCCNC(=O)C1CCN(C(=O)Cn2c(=O)sc3ccc(Cl)cc32)CC1
7 | 2.3 nM | 1.4 nM | 11.5% | 61.6% | 105% | 98% |  |  |  | COc1ccc(CNC(=O)C2CCN(C(=O)Cn3c(=O)sc4ccc(Cl)cc43)CC2)cc1
8 | 4.7 nM | 1.4 nM | 5.6% | 41.1% | 91.4% | 95% |  |  |  | Cc1cc(O)ccc1NC(=O)C1CCN(C(=O)Cn2c(=O)sc3ccc(Cl)cc32)CC1
9 |  |  |  | 43.1% |  | 43.1% |  |  |  | O=C(Cn1c(=O)sc2ccc(Cl)cc21)N1CCC(C(=O)N2CCc3ccccc32)CC1
10 |  |  |  |  | 15.6% | 77.2% |  |  |  | O=C(Cn1c(=O)sc2ccc(Cl)cc21)N1CCC(C(=O)N2CCc3ccccc3C2)CC1
11 |  |  |  |  |  |  | 3.3 nM | 15700 ng/mL |  | Cc1cccc(C(O)CNC(=O)C2CCN(C(=O)Cn3c(=O)sc4ccc(Cl)cc43)CC2)n1 (stereo unspecified) [FR-235208]
12 |  |  |  |  |  | 19.9% |  |  |  | O=C(NCCOS(=O)(=O)O)C1CCN(C(=O)Cn2c(=O)sc3ccc(Cl)cc32)CC1
13 | 0.59 nM | 2 nM | 41.5% | 76.8% | 98.5% | 100% |  |  |  | CC(=O)c1cccc(NC(=O)C2CCN(C(=O)Cn3c(=O)sc4ccc(Cl)cc43)CC2)c1
14 |  |  |  |  | -3.9% | 87.9% |  |  |  | CN(CCc1ccccn1)C(=O)C1CCN(C(=O)Cn2c(=O)sc3ccc(Cl)cc32)CC1
15 |  |  | -4.5% | -3.5% | 59.8% | 51.4% |  |  |  | O=C(Cn1c(=O)sc2ccc(Cl)cc21)N1CCC(C(=O)N2CCCc3ccccc32)CC1
16 | 0.59 nM | 0.7 nM | 52.6% | 93.2% | 97.7% | 104% |  |  |  | O=C(Nc1ccc(F)c(C(F)(F)F)c1)C1CCN(C(=O)Cn2c(=O)sc3ccc(Cl)cc32)CC1
17 | 2.3 nM | 2.6 nM | 29.9% | 70.3% | 88.5% | 94% |  |  |  | COc1ccc(NC(=O)C2CCN(C(=O)Cn3c(=O)sc4ccc(Cl)cc43)CC2)cn1
18 |  |  |  |  |  |  |  |  | 4.4 nM | O=C(Nc1ccccc1)C1CCN(C(=O)Cn2c(=O)sc3ccc(Cl)cc32)CC1 [FR-235656]
19 | 17 nM | 0.71 nM | 49.3% | 83.4% | 99% | 108% |  |  |  | O=C(Nc1cccc2ccccc12)C1CCN(C(=O)Cn2c(=O)sc3ccc(Cl)cc32)CC1
20 | 3.8 nM | 4.7 nM | 16.5% | 68.4% | 102% | 86.2% |  |  |  | O=C(Nc1nc2cc(Cl)ccc2o1)C1CCN(C(=O)Cn2c(=O)sc3ccc(Cl)cc32)CC1
21 |  |  |  |  |  |  |  |  | 0.23 nM | O=C(Nc1ccc(Cl)c2ccccc12)C1CCN(C(=O)Cn2c(=O)sc3ccc(Cl)cc32)CC1 [FR-236478]
22 | 1.5 nM | 0.85 nM | 53.2% | 94.5% | 99.4% | 97.2% |  |  |  | O=C(Nc1ccc(Oc2ccccc2)cc1)C1CCN(C(=O)Cn2c(=O)sc3ccc(Cl)cc32)CC1
23 | 10 nM | 2.8 nM | 31.9% | 68.1% | 86.6% | 107% |  |  |  | Cc1ccc2nc(NC(=O)C3CCN(C(=O)Cn4c(=O)sc5ccc(Cl)cc54)CC3)sc2c1
24 |  |  |  | -5.3% | 67.8% | 88.8% |  |  |  | Cc1cccc(O)c1NC(=O)C1CCN(C(=O)Cn2c(=O)sc3ccc(Cl)cc32)CC1
